Test [1] addresses Tyrosine-protein kinase Lck (Homo sapiens, UniProt P06239). The settings on record: at 10 µM.
The target in test [2] is T1, Ephrin type-A receptor 6 (Homo sapiens) (UniProt Q9UF33).
T1 sequence (whole entry): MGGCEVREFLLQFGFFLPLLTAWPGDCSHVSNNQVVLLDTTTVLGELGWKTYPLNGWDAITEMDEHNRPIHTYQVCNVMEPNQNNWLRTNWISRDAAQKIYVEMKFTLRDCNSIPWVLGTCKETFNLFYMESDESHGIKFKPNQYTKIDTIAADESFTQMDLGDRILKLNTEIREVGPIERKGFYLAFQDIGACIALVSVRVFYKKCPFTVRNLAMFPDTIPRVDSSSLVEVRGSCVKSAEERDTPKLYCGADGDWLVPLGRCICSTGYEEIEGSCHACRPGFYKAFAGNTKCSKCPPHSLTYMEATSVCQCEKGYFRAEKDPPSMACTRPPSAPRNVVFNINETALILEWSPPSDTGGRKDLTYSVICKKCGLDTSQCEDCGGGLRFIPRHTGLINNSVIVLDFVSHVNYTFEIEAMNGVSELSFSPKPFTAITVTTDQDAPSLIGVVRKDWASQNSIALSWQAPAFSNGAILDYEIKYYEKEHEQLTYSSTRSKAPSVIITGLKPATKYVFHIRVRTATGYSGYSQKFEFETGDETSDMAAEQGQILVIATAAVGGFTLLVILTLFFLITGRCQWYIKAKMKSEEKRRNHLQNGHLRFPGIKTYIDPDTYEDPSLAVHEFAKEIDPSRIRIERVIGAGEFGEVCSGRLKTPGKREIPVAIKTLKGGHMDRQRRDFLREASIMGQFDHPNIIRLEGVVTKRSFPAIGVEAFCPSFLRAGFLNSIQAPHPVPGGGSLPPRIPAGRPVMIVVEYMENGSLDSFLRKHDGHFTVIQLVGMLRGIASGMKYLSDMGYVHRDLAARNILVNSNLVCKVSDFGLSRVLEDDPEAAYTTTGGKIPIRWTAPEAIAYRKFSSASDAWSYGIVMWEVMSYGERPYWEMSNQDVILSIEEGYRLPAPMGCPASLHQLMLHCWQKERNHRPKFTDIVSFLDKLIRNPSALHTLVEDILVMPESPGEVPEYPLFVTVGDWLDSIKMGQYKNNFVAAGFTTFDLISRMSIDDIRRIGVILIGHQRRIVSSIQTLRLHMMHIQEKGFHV
Put plainly: Selectivity interaction (KinomeScan (DiscoverX)) EUB0001079a EPHA6. The conditions noted are these: at 1 µM.

In test [3] the target is Mitogen-activated protein kinase 3 (Homo sapiens, UniProt P27361). Put plainly: Selectivity interaction (KinomeScan (DiscoverX)) EUB0001619a MAPK3. The settings on record: at 1 µM.
Sequence of Mitogen-activated protein kinase 3 (P27361 whole entry): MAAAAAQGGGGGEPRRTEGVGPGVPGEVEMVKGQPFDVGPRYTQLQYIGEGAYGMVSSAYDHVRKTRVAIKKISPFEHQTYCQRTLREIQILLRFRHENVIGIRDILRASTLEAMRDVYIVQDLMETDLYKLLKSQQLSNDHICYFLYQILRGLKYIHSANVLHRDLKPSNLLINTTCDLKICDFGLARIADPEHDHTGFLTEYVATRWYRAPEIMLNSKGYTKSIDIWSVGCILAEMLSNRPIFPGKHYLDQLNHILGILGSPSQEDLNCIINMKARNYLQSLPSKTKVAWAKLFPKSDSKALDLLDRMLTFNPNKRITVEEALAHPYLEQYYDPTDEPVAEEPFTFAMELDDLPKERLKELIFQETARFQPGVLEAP
For test [4], the target named is Serine/threonine-protein kinase 32C (Homo sapiens) (UniProt Q86UX6). In words: Selectivity interaction (KinomeScan (DiscoverX)) EUB0001619a STK32C. The settings on record: at 1 µM.
Sequence of Serine/threonine-protein kinase 32C (Homo sapiens) (Q86UX6 whole entry): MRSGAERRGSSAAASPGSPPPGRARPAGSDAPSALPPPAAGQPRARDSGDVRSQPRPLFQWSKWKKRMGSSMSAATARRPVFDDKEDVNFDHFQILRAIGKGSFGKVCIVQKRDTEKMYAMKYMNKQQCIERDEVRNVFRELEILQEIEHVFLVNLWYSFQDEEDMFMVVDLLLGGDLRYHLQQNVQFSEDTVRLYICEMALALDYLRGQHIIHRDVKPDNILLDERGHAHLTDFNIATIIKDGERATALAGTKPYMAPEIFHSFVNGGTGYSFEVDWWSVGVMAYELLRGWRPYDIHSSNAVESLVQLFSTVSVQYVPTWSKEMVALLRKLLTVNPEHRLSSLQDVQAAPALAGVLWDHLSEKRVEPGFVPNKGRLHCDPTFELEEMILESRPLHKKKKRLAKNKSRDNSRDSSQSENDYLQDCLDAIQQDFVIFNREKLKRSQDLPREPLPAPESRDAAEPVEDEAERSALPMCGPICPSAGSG
The target of test [5] is T2, Protein kinase C zeta type (Homo sapiens) (UniProt Q05513).
T2 sequence (whole entry): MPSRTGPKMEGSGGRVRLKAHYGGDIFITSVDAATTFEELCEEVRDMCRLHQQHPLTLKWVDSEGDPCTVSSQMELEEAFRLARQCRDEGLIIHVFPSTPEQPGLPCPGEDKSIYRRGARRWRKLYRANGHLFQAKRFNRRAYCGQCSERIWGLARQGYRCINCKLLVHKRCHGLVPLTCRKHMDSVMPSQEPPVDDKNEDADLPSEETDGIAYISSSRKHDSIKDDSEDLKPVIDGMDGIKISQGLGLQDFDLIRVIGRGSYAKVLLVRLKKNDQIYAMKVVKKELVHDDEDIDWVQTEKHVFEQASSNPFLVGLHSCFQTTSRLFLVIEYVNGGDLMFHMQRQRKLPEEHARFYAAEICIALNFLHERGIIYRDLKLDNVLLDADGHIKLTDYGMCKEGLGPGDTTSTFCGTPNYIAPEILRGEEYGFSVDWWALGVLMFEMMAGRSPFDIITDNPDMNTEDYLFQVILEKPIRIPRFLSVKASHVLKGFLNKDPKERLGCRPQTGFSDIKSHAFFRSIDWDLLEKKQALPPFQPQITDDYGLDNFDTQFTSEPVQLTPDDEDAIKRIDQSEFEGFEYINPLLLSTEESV
Put plainly: Selectivity interaction (ProQinase) EUB0000171b PRKCZ.

In test [6] the target is T3, Muscle, skeletal receptor tyrosine-protein kinase (Homo sapiens) (UniProt O15146).
T3 sequence (whole entry): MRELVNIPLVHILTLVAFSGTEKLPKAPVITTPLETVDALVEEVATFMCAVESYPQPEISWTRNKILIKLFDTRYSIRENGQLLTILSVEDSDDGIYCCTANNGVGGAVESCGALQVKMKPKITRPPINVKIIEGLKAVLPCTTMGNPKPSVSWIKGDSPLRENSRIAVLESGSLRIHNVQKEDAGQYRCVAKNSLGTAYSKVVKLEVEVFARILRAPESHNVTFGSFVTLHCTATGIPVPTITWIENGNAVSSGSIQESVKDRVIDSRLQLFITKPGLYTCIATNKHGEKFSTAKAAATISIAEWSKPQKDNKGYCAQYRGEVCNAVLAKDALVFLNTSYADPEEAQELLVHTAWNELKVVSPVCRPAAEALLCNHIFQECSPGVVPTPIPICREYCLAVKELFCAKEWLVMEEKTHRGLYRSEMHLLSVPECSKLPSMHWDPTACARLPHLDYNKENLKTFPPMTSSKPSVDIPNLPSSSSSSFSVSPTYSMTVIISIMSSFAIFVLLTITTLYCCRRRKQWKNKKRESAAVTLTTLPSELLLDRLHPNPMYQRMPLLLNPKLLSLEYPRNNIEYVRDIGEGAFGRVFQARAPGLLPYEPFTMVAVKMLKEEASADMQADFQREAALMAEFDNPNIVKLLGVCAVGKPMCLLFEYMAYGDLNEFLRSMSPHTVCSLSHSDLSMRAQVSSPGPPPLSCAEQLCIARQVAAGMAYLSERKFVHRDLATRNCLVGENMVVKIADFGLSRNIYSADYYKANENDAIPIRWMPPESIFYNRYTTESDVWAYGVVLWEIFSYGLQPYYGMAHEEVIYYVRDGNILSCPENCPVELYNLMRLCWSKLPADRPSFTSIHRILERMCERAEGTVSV
Put plainly: Selectivity interaction (KinomeScan (DiscoverX)) EUB0000618a MUSK. The settings on record: at 10 µM.

Sequence of Tyrosine-protein kinase Lck (P06239 2-509 limits assumed): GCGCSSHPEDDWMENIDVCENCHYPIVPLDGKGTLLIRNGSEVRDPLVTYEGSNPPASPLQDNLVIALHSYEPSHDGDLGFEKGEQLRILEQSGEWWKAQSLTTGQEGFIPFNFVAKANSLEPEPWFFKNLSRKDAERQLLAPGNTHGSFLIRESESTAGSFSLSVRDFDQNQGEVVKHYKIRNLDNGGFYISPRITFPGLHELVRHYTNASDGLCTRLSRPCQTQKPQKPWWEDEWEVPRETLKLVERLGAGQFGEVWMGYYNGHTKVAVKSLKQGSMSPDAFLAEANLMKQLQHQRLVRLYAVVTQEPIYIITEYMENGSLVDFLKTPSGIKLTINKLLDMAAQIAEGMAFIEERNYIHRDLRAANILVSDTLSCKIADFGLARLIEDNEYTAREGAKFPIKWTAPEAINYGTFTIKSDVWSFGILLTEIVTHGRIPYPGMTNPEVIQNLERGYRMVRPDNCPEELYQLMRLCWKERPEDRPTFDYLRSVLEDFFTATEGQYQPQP

The compound `Cc1cc([C@@H](C)Nc2ccccc2C(=O)O)c2nc(N3CCOCC3)cc(=O)n2c1` [AZD-6482] came in with a % of control in test [1] of 97%.

Consider `Nc1cnc(N2CCc3cc(S(=O)(=O)Nc4c(F)cc(Cl)cc4F)cc(N4CCCC4=O)c32)nc1` [TP-020n], for which, in test [2], the % of control came out at 98%.

Turning to `N#Cc1cccc(-c2c[nH]c3ncnc(N4CCOCC4)c23)c1`, the values for the % of control in test [3] and in test [4] were 87% and 100%, respectively.

In the case of `C=CC(=O)Nc1cccc(C(=O)Nc2ccc(Nc3cc(-c4[nH]c(SC)nc4C)ccn3)cc2)c1`, the figures for the % of control in test [5] (at 1 µM) and in test [5] (at 5 µM) were 87% and 86%, respectively.

As to `O[C@H]1CC[C@H](Nc2ncc3nc(Nc4c(F)cc(F)cc4F)n([C@H]4CCOC4)c3n2)CC1`, the % of control in test [6] is 63%.

For the origin of these results see ChEMBL document CHEMBL5465560, “Selectivity Literature for EUbOPEN Chemogenomic Library” (2024).
